Data: article PMC4992173, “Divergent synthesis and identification of the cellular targets of deoxyelephantopins” (Nature Communications, 2016)

Assays:
[1] = target: T1, PPARγ D174A (Homo sapiens, UniProt P37231, D174A); assay: Gel-based competitive IC50 determination in 293T lysates: D174A PPARγ; type: binding; details: D174A PPARγ expressed in 293T cells, lysate, 1 h, then 10 μM 24c-Cy3
T1 construct: host or cells: 293T
Text: Finally, we sought to understand the molecular basis for PPARγ binding by the synthetic analogues of deoxyelephantopin through identification of the precise covalently modified amino acid site. There is literature precedent for oxidized fatty acids containing an α,β-unsaturated ketone to form a covalent bond with a cysteine in the ligand-binding site of PPARγ[53]. More recently, synthetic ligands binding reversibly to a distinct site were identified. […] Bearing in mind that the structurally simplified, and thus less prone to MS/MS fragmentation, probe 23c binds PPARγ as efficiently as 24c (Supplementary Fig. 13), we treated the recombinant nuclear receptor with the former compound, digested the protein and analysed the resulting peptides by LC–MS/MS. […]
Supplementary figure 21: Top: Fluorescence gels corresponding to the IC50 curves presented in the main text Figure 8b. γ fluorescence signal in percentage after 19a treatment. […]
(§1) Biological materials. […] Protein concentration was determined using the Bradford assay (Bio-Rad).
(§2) Cell culture and preparation of lysates. […] Cells were lysed by sonication to form cell lysates and protein concentration was determined using the Bradford […]

[2] = system: MCF7 cells; assay: Caspase activation (FITC-VAD-FMK), Annexin V and propidium iodide staining; type: cell-based, human; details: 20 μM, 8 h
Experimental: We began our biological investigations by assaying the cytotoxicity of natural deoxyelephantopin (DEP) and its unnatural analogues in four different cancer cell lines (Fig. 5a, Supplementary Figs 6–8).
Figure 5 Assessing the cytotoxicity of deoxyelephantopin (DEP) and analogues. (a) Cell viability measurements in four different cancer cell lines. Cells were treated with compounds for 3 days, the nuclei were stained with DAPI and counted (EC50 values±s.d. shown; n=3). **P<0.005 and ***P<0.0005 by two-sided Student's t-test. (b) Detection of caspase activation and apoptosis in MCF7 cells using FITC-VAD-FMK fluorescent probe (top) or Annexin V staining (bottom). The cells were treated with 1 μM staurosporine (positive control) or 20 μM deoxyelephantopin for 8 h. Confocal microscopy images are shown. EC50, effector concentration for half-maximum response. Scale bars, 30μm. […]
as §1, §2
’ cells/mL and HeLa: 1 ’ cells/mL) in a 96-well plate and allowed to attach overnight. […] Cells were imaged using a SpectraMax i3 plate reader equipped with a SpectraMax MiniMax imaging cytometer (Molecular Devices). […]
Caspase activity labeling for fluorescence cell imaging. […]

T1 sequence (P37231 whole entry D174A): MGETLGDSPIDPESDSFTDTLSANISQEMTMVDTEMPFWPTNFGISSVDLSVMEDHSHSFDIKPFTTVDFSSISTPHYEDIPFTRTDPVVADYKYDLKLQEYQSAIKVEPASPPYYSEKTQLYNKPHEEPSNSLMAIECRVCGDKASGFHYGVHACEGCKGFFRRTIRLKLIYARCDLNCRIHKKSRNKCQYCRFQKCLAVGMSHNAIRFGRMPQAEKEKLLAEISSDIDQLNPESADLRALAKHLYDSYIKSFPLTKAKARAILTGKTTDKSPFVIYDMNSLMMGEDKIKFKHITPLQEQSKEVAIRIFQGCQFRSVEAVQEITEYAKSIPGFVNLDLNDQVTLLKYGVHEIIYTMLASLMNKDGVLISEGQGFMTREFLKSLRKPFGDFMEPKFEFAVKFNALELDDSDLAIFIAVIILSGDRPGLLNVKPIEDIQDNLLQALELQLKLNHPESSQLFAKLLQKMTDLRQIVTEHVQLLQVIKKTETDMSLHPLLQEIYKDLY

| IC50 [1] | SMILES | cause of cell death (FITC-VAD-FMK, Annexin-V-FLUOS staining) [2] | necrotic death (propidium iodide staining) [2] |
| --- | --- | --- | --- |
| 58 µM | C=C(C)C(=O)O[C@H]1CC2=C[C@H](C/C=C\[C@H]3OC(=O)C(=C)[C@H]13)OC2=O [19a] | – | – |
| – | C=C(C)C(=O)O[C@H]1CC2=C[C@@H](C/C(C)=C/[C@H]3OC(=O)C(=C)[C@H]13)OC2=O [deoxyelephantopin] | caspase-mediated apoptosis | did not indicate any significant necrotic death |
